Source: the OligoGym collection
Bases are written 5' to 3'; sugars and linkages follow in the same order, as letters with counts (s phosphorothioate, o phosphodiester; PS: all linkages phosphorothioate). The collection does not say whether C is 5-methylated. l = locked nucleic acid (LNA); d = 2'-deoxy (DNA)

Target: Tau
Assay: rat primary cortical neurons, FLIPR, 25 uM ASO

Q: Which calcium oscillation score does the source give for “AATTCACACAACAAACTAT (sugars l4 d11 l4, PS)” here?
A: Its calcium oscillation score is 74.5 % of control.

Q: How did the calcium oscillation score turn out when “AATTCATAAATGACTATACT (sugars l3 d14 l3, PS)” was run?
A: Its calcium oscillation score is 40.3 % of control.

Q: How did the calcium oscillation score turn out when “AATTCATTTAATTCTCTTCT (sugars l4 d12 l4, PS)” was run?
A: The calcium oscillation score was 86.6 % of control.

Q: With “AATTTACACCCAAACCTA (sugars l2 d12 l4, PS)” as the sequence, how does the calcium oscillation score read?
A: The calcium oscillation score was 81.9 % of control.

Q: Which calcium oscillation score does the source give for “AATTTACACCCAAACCTAA (sugars l4 d11 l4, PS)” here?
A: The calcium oscillation score was 106 % of control.

Q: For AATTTAGTCACCATCA (sugars l4 d8 l4, PS), which calcium oscillation score is on record?
A: The calcium oscillation score was 62.1 % of control.

Q: How did the calcium oscillation score turn out when AATTTAGTCACCATCAC (sugars l4 d9 l4, PS) was run?
A: The calcium oscillation score was 79.1 % of control.

Q: For “AATTTATTAATTCATAAATG (sugars l3 d14 l3, PS)”, which calcium oscillation score is on record?
A: The calcium oscillation score was 38.3 % of control.

Q: Which calcium oscillation score does the source give for AATTTCACCCTCAGTA (sugars l3 d10 l3, PS) here?
A: Its calcium oscillation score is 73 % of control.

Q: Which calcium oscillation score does the source give for “AATTTCAGAGCAAAGTGACC (sugars l3 d14 l3, PS)” here?
A: Its calcium oscillation score is 2.38 % of control.

Q: For AATTTCTCTAATTGTCC (sugars l4 d9 l4, PS), which calcium oscillation score is on record?
A: Its calcium oscillation score is 69 % of control.

Q: With “AATTTGGAAAGATGAAATTT (sugars l3 d14 l3, PS)” as the sequence, how does the calcium oscillation score read?
A: Its calcium oscillation score is 0 % of control.

Q: For “ACAAACAATCCATTTATAT (sugars l4 d11 l4, PS)”, which calcium oscillation score is on record?
A: Its calcium oscillation score is 46.2 % of control.

Q: Which calcium oscillation score does the source give for “ACAAACATCTAAACACCTCA (sugars l2 d14 l4, PS)” here?
A: The calcium oscillation score was 72.6 % of control.

Q: Which calcium oscillation score does the source give for “ACAAACCAACTCAACATTAC (sugars l4 d12 l4, PS)” here?
A: Its calcium oscillation score is 84.6 % of control.

Q: How did the calcium oscillation score turn out when “ACAAACCAGTTACCATC (sugars l3 d10 l4, PS)” was run?
A: Its calcium oscillation score is 87.7 % of control.

Q: How did the calcium oscillation score turn out when “ACAACAAACATCTAAACACC (sugars l3 d13 l4, PS)” was run?
A: The calcium oscillation score was 84.5 % of control.

Q: Which calcium oscillation score does the source give for “ACAATTCTCAGCACACC (sugars l2 d11 l4, PS)” here?
A: The calcium oscillation score was 48.8 % of control.

Q: With “ACACCATCCAAGTCAAT (sugars l3 d10 l4, PS)” as the sequence, how does the calcium oscillation score read?
A: The calcium oscillation score was 16.2 % of control.

Q: With “ACACCTCGTCAGCTAGCGTG (sugars l3 d14 l3, PS)” as the sequence, how does the calcium oscillation score read?
A: Its calcium oscillation score is 0 % of control.

Q: For “ACACTGTCCTTTAAACA (sugars l4 d10 l3, PS)”, which calcium oscillation score is on record?
A: The calcium oscillation score was 68.1 % of control.

Q: For ACACTGTCGTCGAATG (sugars l3 d10 l3, PS), which calcium oscillation score is on record?
A: Its calcium oscillation score is 9.52 % of control.

Q: Which calcium oscillation score does the source give for “ACAGATATTCATTCCCT (sugars l4 d11 l2, PS)” here?
A: The calcium oscillation score was 44.2 % of control.

Q: How did the calcium oscillation score turn out when “ACAGCCATTTTCCATAT (sugars l3 d11 l3, PS)” was run?
A: The calcium oscillation score was 59.3 % of control.

Q: Which calcium oscillation score does the source give for ACAGCCTCATAAACCT (sugars l4 d10 l2, PS) here?
A: The calcium oscillation score was 66.8 % of control.

Q: “ACAGCCTCATAAACCTA (sugars l3 d11 l3, PS)” was tested. Which calcium oscillation score did it give?
A: Its calcium oscillation score is 59.4 % of control.

Q: How did the calcium oscillation score turn out when “ACAGGAGAGCCATTTCCCAA (sugars l3 d14 l3, PS)” was run?
A: The calcium oscillation score was 42.9 % of control.

Q: With ACATCCTGCCATACCA (sugars l3 d11 l2, PS) as the sequence, how does the calcium oscillation score read?
A: Its calcium oscillation score is 45 % of control.

Q: For “ACATCTAAACACCTCAATCC (sugars l2 d15 l3, PS)”, which calcium oscillation score is on record?
A: Its calcium oscillation score is 73.2 % of control.

Q: With ACATCTCTCTAGACAT (sugars l4 d9 l3, PS) as the sequence, how does the calcium oscillation score read?
A: The calcium oscillation score was 59.5 % of control.

Q: Which calcium oscillation score does the source give for “ACATCTCTCTAGACATC (sugars l4 d10 l3, PS)” here?
A: The calcium oscillation score was 68.4 % of control.

Q: With ACATGCTAATCAATAC (sugars l4 d8 l4, PS) as the sequence, how does the calcium oscillation score read?
A: The calcium oscillation score was 57.8 % of control.

Q: With ACATTCTATACTTCAG (sugars l4 d8 l4, PS) as the sequence, how does the calcium oscillation score read?
A: Its calcium oscillation score is 71.4 % of control.

Q: For “ACCAACTTTCATCTACTTTT (sugars l3 d15 l2, PS)”, which calcium oscillation score is on record?
A: The calcium oscillation score was 90.5 % of control.

Q: Which calcium oscillation score does the source give for ACCAATTAACCGAACT (sugars l3 d10 l3, PS) here?
A: Its calcium oscillation score is 159 % of control.

Q: How did the calcium oscillation score turn out when “ACCAATTAACCGAACTGCGA (sugars l3 d14 l3, PS)” was run?
A: Its calcium oscillation score is 22.6 % of control.

Q: How did the calcium oscillation score turn out when “ACCAATTATCTTTAAATTCT (sugars l4 d13 l3, PS)” was run?
A: Its calcium oscillation score is 77 % of control.

Q: With “ACCACACACTCTGATAC (sugars l4 d11 l2, PS)” as the sequence, how does the calcium oscillation score read?
A: Its calcium oscillation score is 69 % of control.

Q: Which calcium oscillation score does the source give for “ACCACATTATCATCCATT (sugars l2 d12 l4, PS)” here?
A: The calcium oscillation score was 55.7 % of control.

Q: How did the calcium oscillation score turn out when “ACCACATTATCATCCATTC (sugars l2 d14 l3, PS)” was run?
A: The calcium oscillation score was 51.9 % of control.

Q: For “ACCACATTATCATCCATTCT (sugars l3 d14 l3, PS)”, which calcium oscillation score is on record?
A: The calcium oscillation score was 32.2 % of control.

Q: “ACCACCTCATTAAGATC (sugars l4 d11 l2, PS)” was tested. Which calcium oscillation score did it give?
A: The calcium oscillation score was 58.3 % of control.

Q: For “ACCACTGGCGACTTGTACAC (sugars l3 d14 l3, PS)”, which calcium oscillation score is on record?
A: The calcium oscillation score was 5.18 % of control.

Q: How did the calcium oscillation score turn out when “ACCAGCTAGTGGTGCCACCT (sugars l3 d14 l3, PS)” was run?
A: The calcium oscillation score was 20.2 % of control.

Q: “ACCAGTTACCATCATAC (sugars l4 d11 l2, PS)” was tested. Which calcium oscillation score did it give?
A: The calcium oscillation score was 93.2 % of control.

Q: Which calcium oscillation score does the source give for ACCATCATACTCCAAG (sugars l4 d9 l3, PS) here?
A: Its calcium oscillation score is 76 % of control.

Q: Which calcium oscillation score does the source give for “ACCATCATACTCCAAGT (sugars l3 d12 l2, PS)” here?
A: The calcium oscillation score was 77.7 % of control.

Q: Which calcium oscillation score does the source give for “ACCATCCAAGTCAATGCCTG (sugars l3 d14 l3, PS)” here?
A: Its calcium oscillation score is 4.03 % of control.

Q: For ACCATGATCTTAGGCT (sugars l3 d10 l3, PS), which calcium oscillation score is on record?
A: Its calcium oscillation score is 87.8 % of control.

Q: “ACCATTAACTGCCTATT (sugars l4 d11 l2, PS)” was tested. Which calcium oscillation score did it give?
A: Its calcium oscillation score is 50.5 % of control.

Q: For ACCCAATCTTCGACTG (sugars l3 d10 l3, PS), which calcium oscillation score is on record?
A: The calcium oscillation score was 43.4 % of control.

Q: “ACCCACTTTCCTAATTCCCA (sugars l1 d17 l2, PS)” was tested. Which calcium oscillation score did it give?
A: Its calcium oscillation score is 76.6 % of control.

Q: How did the calcium oscillation score turn out when “ACCCATCAATTTGGAAAGAT (sugars l3 d14 l3, PS)” was run?
A: The calcium oscillation score was 72.6 % of control.

Q: “ACCCATCCCACAAAGAACAG (sugars l3 d14 l3, PS)” was tested. Which calcium oscillation score did it give?
A: Its calcium oscillation score is 34.2 % of control.
